Assay results reported in patent US20150005281A1, “PYRIMIDINE-2,4-DIAMINE DERIVATIVES AS KINASE INHIBITORS” (Cellzome Limited, priority 2011, published 2015).

How the values were obtained:
Assay type in all cases: binding
JAK2 = target: T1, JAK2 (Homo sapiens, UniProt O60674); assay: Kinobeads assay with immunodetection, JAK2; conditions: mixed Molt4/Ramos lysate, read-out: Inhibition values (IC50) JAK2
T1 construct: endogenous in cells; host or cells: Molt4 (ATCC CRL-1582) and Ramos (ATCC CRL-1596) cells; mixed lysate 1:2
T1 sequence (O60674 whole entry): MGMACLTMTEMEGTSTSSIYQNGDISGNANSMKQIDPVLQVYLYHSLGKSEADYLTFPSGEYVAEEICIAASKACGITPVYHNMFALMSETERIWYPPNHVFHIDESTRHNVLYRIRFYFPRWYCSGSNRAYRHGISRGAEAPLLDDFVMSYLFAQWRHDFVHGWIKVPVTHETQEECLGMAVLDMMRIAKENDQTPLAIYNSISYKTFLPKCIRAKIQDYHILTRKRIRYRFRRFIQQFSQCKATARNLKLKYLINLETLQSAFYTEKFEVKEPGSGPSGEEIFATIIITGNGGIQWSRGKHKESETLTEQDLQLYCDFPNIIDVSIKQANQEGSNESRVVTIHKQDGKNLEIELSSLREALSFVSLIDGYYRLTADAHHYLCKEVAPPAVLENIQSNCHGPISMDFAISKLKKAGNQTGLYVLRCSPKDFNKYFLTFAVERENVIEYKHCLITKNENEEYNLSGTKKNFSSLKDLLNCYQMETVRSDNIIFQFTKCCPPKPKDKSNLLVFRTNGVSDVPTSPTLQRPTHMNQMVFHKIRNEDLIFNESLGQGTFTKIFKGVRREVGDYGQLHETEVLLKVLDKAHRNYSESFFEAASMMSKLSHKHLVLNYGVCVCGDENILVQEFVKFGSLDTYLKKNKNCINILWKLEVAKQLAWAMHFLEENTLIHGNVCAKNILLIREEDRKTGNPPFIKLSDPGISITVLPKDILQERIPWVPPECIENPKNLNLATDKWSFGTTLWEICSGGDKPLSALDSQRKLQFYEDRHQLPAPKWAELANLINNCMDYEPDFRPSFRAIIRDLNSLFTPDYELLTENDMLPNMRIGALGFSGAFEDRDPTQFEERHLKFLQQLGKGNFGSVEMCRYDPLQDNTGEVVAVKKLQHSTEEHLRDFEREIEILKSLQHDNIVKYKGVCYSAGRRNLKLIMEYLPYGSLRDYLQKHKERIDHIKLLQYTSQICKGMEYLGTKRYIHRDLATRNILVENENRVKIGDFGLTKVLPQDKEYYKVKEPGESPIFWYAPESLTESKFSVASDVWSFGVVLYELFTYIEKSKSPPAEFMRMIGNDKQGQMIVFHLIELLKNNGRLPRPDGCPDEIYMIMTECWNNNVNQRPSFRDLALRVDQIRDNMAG
Method: (§1) Determination of the Effect of the Compounds According to the Invention on Janus Kinases (JAK Family) in Kinobeads™ Assays with Immunodetection of Kinases
(§2) The compounds of the present invention as described in the previous examples were tested in a Kinobeads™ assay as described for ZAP-70 (WO-A 2007/137867). Briefly, test compounds (at various concentrations) and the affinity matrix with the immobilized aminopyrido-pyrimidine ligand 24 were added to cell lysate aliquots and allowed to bind to the proteins in the lysate sample. After the incubation time the beads with captured proteins were separated from the lysate. Bound proteins were then eluted and the presence of JAK1, JAK2, JAK3 and TYK2 was detected and quantified using specific antibodies in a dot blot procedure and the Odyssey infrared detection system. Dose response curves for individual kinases were generated and IC50 values calculated. Kinobeads™ assays for ZAP-70 (WO-A 2007/137867) and for kinase selectivity profiling (WO-A 2006/134056) have been previously described.
(§3) The affinity matrix was washed two times with 15 mL of 1×DP buffer containing 0.2% NP40 (IGEPAL® CA-630, Sigma, #13021) and then resuspended in 1×DP buffer containing 0.2% NP40 (3% beads slurry).
(§4) 5×DP buffer: 250 mM Tris-HCl pH 7.4, 25% Glycerol, 7.5 mM MgCl2, 750 mM NaCl, 5 mM Na3VO4; filter the 5×DP buffer through a 0.22 μm filter and store in aliquots at −80° C. The 5×DP buffer is diluted with H2O to 1×DP buffer containing 1 mM DTT and 25 mM NaF.
(§5) Stock solutions of test compounds were prepared in DMSO. In a 96 well plate 30 μL solution of diluted test compounds at 5 mM in DMSO were prepared. Starting with this solution a 1:3 dilution series (9 steps) was prepared. For control experiments (no test compound) a buffer containing 2% DMSO was used.
(§6) Molt4 cells (ATCC catalogue number CRL-1582) and Ramos cells (ATCC catalogue number CRL-1596) were grown in 1 L Spinner flasks (Integra Biosciences, #182101) in suspension in RPMI 1640 medium (Invitrogen, #21875-034) supplemented with 10% Fetal Bovine Serum (Invitrogen) at a density between 0.15×10^6 and 1.2×10^6 cells/mL. Cells were harvested by centrifugation, washed once with 1×PBS buffer (Invitrogen, #14190-094) and cell pellets were frozen in liquid nitrogen and subsequently stored at −80° C. Cells were homogenized in a Potter S homogenizer in lysis buffer: 50 mM Tris-HCl, 0.8% NP40, 5% glycerol, 150 mM NaCl, 1.5 mM MgCl2, 25 mM NaF, 1 mM sodium vanadate, 1 mM DTT, pH 7.5. One complete EDTA-free tablet (protease inhibitor cocktail, Roche Diagnostics, 1873580) per 25 ml, buffer was added. The material was dounced 10 times using a mechanized POTTER S, transferred to 50 mL falcon tubes, incubated for 30 minutes on ice and spun down for 10 minutes at 20,000 g at 4° C. (10,000 rpm in Sorvall SLA600, precooled). The supernatant was transferred to an ultracentrifuge (UZ)-polycarbonate tube (Beckmann, 355654) and spun for 1 hour at 100.000 g at 4° C. (33.500 rpm in Ti50.2, precooled). The supernatant was transferred again to a fresh 50 mL falcon tube, the protein concentration was determined by a Bradford assay (BioRad) and samples containing 50 mg of protein per aliquot were prepared. The samples were immediately used for experiments or frozen in liquid nitrogen and stored frozen at −80° C.
(§7) Cell lysate (approximately 50 mg protein per plate) was thawed in a water bath at room temperature and then stored on ice. To the thawed cell lysate 1×DP 0.8% NP40 buffer containing protease inhibitors (1 tablet for 25 mL buffer; EDTA-free protease inhibitor cocktail; Roche Diagnostics 1873580) was added in order to reach a final protein concentration of 10 mg/mL total protein. The diluted cell lysate was stored on ice. Mixed Molt4/Ramos lysate was prepared by combining one volume of Molt4 lysate and two volumes of Ramos lysate (ratio 1:2). […]

JAK1 = target: T2, JAK1 (Homo sapiens, UniProt P23458); assay: Kinobeads assay with immunodetection, JAK1; conditions: for IC50: Kinobeads assay, mixed Molt4/Ramos lysate, read-out: Inhibition values (IC50) JAK1
T2 construct: endogenous in cells; host or cells: Molt4 (ATCC CRL-1582) and Ramos (ATCC CRL-1596) cells; mixed lysate 1:2
T2 sequence (P23458 whole entry): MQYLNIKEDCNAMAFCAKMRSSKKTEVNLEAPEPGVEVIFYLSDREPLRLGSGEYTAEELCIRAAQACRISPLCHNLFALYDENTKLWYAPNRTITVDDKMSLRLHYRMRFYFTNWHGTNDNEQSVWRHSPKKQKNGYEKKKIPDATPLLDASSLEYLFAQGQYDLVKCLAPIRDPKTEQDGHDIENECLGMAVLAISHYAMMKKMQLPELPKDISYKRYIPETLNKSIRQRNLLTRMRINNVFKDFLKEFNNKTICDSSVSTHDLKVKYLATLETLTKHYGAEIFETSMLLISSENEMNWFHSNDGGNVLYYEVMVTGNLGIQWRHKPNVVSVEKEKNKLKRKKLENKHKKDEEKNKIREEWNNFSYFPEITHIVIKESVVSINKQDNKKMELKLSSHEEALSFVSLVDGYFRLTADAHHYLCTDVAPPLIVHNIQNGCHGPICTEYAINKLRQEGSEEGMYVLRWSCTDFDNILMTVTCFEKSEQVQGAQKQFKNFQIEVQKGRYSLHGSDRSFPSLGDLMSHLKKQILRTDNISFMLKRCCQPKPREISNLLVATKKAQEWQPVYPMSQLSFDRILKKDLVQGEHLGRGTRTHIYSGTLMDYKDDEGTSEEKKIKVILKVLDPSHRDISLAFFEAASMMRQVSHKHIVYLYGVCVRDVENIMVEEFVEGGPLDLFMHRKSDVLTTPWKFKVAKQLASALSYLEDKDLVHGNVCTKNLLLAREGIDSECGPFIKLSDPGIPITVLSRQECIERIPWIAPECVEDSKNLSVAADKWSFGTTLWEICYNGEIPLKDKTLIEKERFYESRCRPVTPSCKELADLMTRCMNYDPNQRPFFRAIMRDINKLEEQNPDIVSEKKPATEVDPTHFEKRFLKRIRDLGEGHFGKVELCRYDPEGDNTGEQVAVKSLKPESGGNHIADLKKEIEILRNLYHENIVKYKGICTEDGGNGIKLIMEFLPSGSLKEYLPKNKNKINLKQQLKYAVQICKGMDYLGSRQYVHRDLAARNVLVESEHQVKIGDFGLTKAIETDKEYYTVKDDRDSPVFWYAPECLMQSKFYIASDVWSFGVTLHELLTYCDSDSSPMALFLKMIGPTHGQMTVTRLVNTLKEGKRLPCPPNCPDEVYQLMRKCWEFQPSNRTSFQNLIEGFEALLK
Method: as §1, §2, §3, §4, §5, §6, §7

TYK2 = target: T3, TYK2 (Homo sapiens, UniProt P29597); assay: Kinobeads assay with immunodetection, TYK2; conditions: for IC50: Kinobeads assay, mixed Molt4/Ramos lysate, read-out: Inhibition values (IC50) Tyk2
T3 construct: endogenous in cells; host or cells: Molt4 (ATCC CRL-1582) and Ramos (ATCC CRL-1596) cells; mixed lysate 1:2
T3 sequence (P29597 whole entry): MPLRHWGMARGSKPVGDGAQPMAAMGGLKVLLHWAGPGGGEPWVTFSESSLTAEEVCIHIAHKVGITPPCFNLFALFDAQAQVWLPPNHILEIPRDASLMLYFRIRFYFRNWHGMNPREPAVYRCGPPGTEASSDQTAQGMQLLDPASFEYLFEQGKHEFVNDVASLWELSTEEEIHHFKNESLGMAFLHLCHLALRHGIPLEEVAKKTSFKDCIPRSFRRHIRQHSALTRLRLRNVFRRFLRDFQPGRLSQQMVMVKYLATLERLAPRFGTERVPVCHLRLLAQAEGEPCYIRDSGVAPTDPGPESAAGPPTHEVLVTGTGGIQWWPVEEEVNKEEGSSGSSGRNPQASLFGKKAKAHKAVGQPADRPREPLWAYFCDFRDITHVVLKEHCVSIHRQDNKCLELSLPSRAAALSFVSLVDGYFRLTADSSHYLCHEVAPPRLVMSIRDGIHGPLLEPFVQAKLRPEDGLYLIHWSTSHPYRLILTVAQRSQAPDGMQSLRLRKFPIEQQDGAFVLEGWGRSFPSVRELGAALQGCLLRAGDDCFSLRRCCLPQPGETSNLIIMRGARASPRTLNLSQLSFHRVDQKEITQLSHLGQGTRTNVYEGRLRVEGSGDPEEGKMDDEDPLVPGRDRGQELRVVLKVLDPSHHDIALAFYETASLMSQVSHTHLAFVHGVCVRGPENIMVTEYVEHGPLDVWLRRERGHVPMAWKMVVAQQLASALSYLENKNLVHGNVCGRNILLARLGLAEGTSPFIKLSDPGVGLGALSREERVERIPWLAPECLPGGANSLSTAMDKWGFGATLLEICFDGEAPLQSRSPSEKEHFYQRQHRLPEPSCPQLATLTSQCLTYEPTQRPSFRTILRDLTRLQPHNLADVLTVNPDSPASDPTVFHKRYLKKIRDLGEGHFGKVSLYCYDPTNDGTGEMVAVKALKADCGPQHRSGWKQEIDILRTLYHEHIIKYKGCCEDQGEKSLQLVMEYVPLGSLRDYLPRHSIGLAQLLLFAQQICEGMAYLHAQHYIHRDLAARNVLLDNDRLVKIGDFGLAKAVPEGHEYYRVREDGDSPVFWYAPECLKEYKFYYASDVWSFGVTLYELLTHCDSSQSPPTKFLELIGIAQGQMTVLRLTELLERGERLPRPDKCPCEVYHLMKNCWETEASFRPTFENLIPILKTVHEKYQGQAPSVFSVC
Method: as §1, §2, §3, §4, §5, §6, §7

JAK3 = target: T4, JAK3 (Homo sapiens, UniProt P52333); assay: Kinobeads assay with immunodetection, JAK3; conditions: for IC50: Kinobeads assay, mixed Molt4/Ramos lysate, read-out: Inhibition values (IC50) JAK3
T4 construct: endogenous in cells; host or cells: Molt4 (ATCC CRL-1582) and Ramos (ATCC CRL-1596) cells; mixed lysate 1:2
T4 sequence (P52333 1-1124): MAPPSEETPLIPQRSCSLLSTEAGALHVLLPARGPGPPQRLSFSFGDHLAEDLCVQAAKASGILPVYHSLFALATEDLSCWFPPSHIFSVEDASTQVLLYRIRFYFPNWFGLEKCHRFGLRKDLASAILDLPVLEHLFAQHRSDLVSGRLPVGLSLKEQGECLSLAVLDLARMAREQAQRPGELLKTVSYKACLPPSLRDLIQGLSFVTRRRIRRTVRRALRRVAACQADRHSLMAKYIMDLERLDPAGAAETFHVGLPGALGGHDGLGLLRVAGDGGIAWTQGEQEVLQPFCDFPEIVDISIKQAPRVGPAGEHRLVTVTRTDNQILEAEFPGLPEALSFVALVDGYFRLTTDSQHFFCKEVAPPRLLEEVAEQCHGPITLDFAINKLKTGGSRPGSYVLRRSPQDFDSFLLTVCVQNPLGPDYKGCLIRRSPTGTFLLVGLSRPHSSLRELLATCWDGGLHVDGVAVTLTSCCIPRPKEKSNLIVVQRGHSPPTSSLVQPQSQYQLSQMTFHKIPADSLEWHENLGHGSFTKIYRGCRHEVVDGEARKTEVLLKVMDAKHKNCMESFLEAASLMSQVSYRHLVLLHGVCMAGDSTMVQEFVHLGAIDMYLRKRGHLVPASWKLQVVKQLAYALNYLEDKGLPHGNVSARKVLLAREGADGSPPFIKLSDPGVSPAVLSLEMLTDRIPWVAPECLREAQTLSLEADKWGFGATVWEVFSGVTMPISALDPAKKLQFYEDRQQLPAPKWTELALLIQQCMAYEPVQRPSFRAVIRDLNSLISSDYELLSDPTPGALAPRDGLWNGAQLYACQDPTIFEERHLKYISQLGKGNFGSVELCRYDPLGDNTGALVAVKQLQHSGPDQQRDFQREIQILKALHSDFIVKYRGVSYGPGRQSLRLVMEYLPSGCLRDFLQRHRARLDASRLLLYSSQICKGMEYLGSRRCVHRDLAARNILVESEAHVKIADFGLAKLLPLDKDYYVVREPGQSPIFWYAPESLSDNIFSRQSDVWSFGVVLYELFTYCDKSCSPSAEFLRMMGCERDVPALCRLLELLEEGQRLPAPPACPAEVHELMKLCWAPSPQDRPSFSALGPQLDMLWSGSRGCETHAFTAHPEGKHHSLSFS
Method: as §1, §2, §3, §4, §5, §6, §7

Row | Compound | IC50 (JAK2) [nM] | IC50 (JAK1) [nM] | IC50 (TYK2) [nM] | Selectivity ratio over JAK2, Tyk2 (TYK2) | IC50 (JAK3) [nM] | Selectivity ratio over JAK2, JAK1 (JAK1) | Selectivity ratio over JAK2, JAK3 (JAK3)
1 | Cn1cc(Nc2ncc(Cl)c(NC[C@H]3CCCN3C(=O)CCC#N)n2)cn1 [Example 86, (R)-4-(2-(((5-chloro-2-((1-methyl-1H-pyrazol-4-yl)amino)pyrimidin-4-yl)amino)methyl)pyrrolidin-1-yl)-4-oxobutanenitrile] | 100 to 1000 | < 100 | < 100 | Tyk2 = 33 | < 100 |  | 
2 | Cc1cnc(Nc2cnn(CC(F)F)c2)nc1NC[C@@H]1CCCN1C(=O)CCC#N [Example 125, (S)-4-(2-(((2-((1-(2,2-difluoroethyl)-1H-pyrazol-4-yl)amino)-5-methylpyrimidin-4-yl)amino)methyl)pyrrolidin-1-yl)-4-oxobutanenitrile] | 1000 to 10000 | < 100 | < 100 |  | 100 to 1000 | JAK1 = 197 | 
3 | C=CC(=O)N1CCC[C@H]1CNc1nc(Nc2cnn(CCO)c2)ncc1Cl [Example 11, (S)-1-(2-(((5-chloro-2-((1-(2-hydroxyethyl)-1H-pyrazol-4-yl)amino)pyrimidin-4-yl)amino)methyl)pyrrolidin-1-yl)prop-2-en-1-one] | > 10000 | 100 to 1000 | 100 to 1000 |  | 1000 to 10000 |  | 
4 | Cc1cnc(Nc2cnn(CC(F)F)c2)nc1NC[C@H]1CCN(C(=O)CCC#N)C1 [Example 130, (R)-4-(3-(((2-((1-(2,2-difluoroethyl)-1H-pyrazol-4-yl)amino)-5-methylpyrimidin-4-yl)amino)methyl)pyrrolidin-1-yl)-4-oxobutanenitrile] | 100 to 1000 | < 100 | < 100 |  | 100 to 1000 | JAK1 = 143 | 
5 | Cn1cc(Nc2ncc(Cl)c(NC[C@H]3CCCN3S(=O)(=O)C3CC3)n2)cn1 [Example 98, (R)-5-chloro-N^4-((1-(cyclopropylsulfonyl)pyrrolidin-2-yl)methyl)-N^2-(1-methyl-1H-pyrazol-4-yl)pyrimidine-2,4-diamine] | 100 to 1000 | < 100 | < 100 |  | < 100 |  | JAK3 = 53
6 | CC(=O)N1CCCC[C@H]1CNc1nc(Nc2cnn(C)c2)ncc1Cl [Example 32, (S)-1-(2-(((5-chloro-2-((1-methyl-1H-pyrazol-4-yl)amino)pyrimidin-4-yl)amino)methyl)piperidin-1-yl)ethanone] | > 10000 | 1000 to 10000 | 1000 to 10000 |  | 1000 to 10000 |  | 
7 | C=CS(=O)(=O)N1CC[C@@H](CNc2nc(Nc3cnn(C)c3)ncc2Cl)C1 [Example 31, (S)-5-chloro-N^2-(1-methyl-1H-pyrazol-4-yl)-N^4-((1-(vinylsulfonyl)pyrrolidin-3-yl)methyl)pyrimidine-2,4-diamine] | 1000 to 10000 | 100 to 1000 | 100 to 1000 |  | < 100 |  | JAK3 = 190
8 | Cn1cc(Nc2ncc(F)c(NC[C@H]3CCCN3CCC#N)n2)cn1 [Example 112, (R)-3-(2-(((5-fluoro-2-((1-methyl-1H-pyrazol-4-yl)amino)pyrimidin-4-yl)amino)methyl)pyrrolidin-1-yl)propanenitrile] | 1000 to 10000 | 100 to 1000 | < 100 | Tyk2 = 53 | 100 to 1000 |  | 
9 | CC(=O)N1CCC[C@@H]1CNc1nc(Nc2cnn(CCO)c2)ncc1Cl [Example 2, (R)-1-(2-(((5-chloro-2-((1-(2-hydroxyethyl)-1H-pyrazol-4-yl)amino)pyrimidin-4-yl)amino)methyl)pyrrolidin-1-yl)ethanone] | 100 to 1000 | < 100 | < 100 |  | < 100 | JAK1 = 6 | 
10 | C=CS(=O)(=O)N1CCC[C@@H]1CNc1nc(Nc2cnn(C)c2)ncc1Cl [Example 7, (R)-5-chloro-N^2-(1-methyl-1H-pyrazol-4-yl)-N^4-((1-(vinylsulfonyl)pyrrolidin-2-yl)methyl)pyrimidine-2,4-diamine] | 1000 to 10000 | 100 to 1000 | 100 to 1000 |  | < 100 |  | JAK3 = 100
11 | Cl.Cn1cc(Nc2ncc(F)c(NC[C@@H]3CCCN3S(C)(=O)=O)n2)cn1 [Example 75, (S)-5-fluoro-N2-(1-methyl-1H-pyrazol-4-yl)-N4-((1-(methylsulfonyl)pyrrolidin-2-yl)methyl)pyrimidine-2,4-diamine Hydrochloride] | 1000 to 10000 | < 100 | < 100 | Tyk2 = 28 | 100 to 1000 |  | 
12 | Cn1cc(Nc2ncc(Cl)c(NC[C@H]3CCN(S(C)(=O)=O)C3)n2)cn1 [Example 24, (R)-5-chloro-N^2-(1-methyl-1H-pyrazol-4-yl)-N^4-((1-(methylsulfonyl)pyrrolidin-3-yl)methyl)pyrimidine-2,4-diamine] | 100 to 1000 | < 100 | < 100 |  | 100 to 1000 | JAK1 = 23 | 
